Reference: article PMC12888861, “Antibacterial activity of enmetazobactam against Acinetobacter spp.: a molecular dissection of mechanism of action and resistance determinants” (Antimicrobial Agents and Chemotherapy, 2025)
Converted amounts (≈) assume the structure as drawn.

Experiments:
[1] = system: carbapenem-resistant A. baumannii (CRAB) isolates (n = 67); experiment: MIC, broth microdilution (EUCAST), carbapenem-resistant A. baumannii isolates; format: cell-based, Acinetobacter baumannii; details: for MIC: Acinetobacter baumannii
In short: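 Broth microdilution per EUCAST v.15 guidelines on clinical Acinetobacter isolates from a Spanish 2020 multicenter collection; enmetazobactam also tested alone. A. baumannii ATCC 19606 served as reference strain, in duplicate assays.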

[2] = system: A. baumannii ATCC 19606 cells; experiment: Cell morphology assay, bright-field microscopy; format: cell-based, Acinetobacter baumannii; details: A. baumannii ATCC 19606, overnight exposure at 1× MIC
Protocol: In order to confirm the involvement of PBPs as targets of enmetazobactam, cell morphology assays involving exposure to enmetazobactam and sulbactam were performed following the methodology described in Supplementary materials and methods.
To confirm the involvement of PBPs as targets of enmetazobactam, the cellular morphology of A. baumannii ATCC 19606 reference strain was analyzed after exposure to the compound at different concentrations. Bright-field microscopy was used to monitor the cell morphology. […] For microscopic visualization, aliquots of each sample were obtained, stained with crystal violet solution and observed using an Olympus BX61 microscope (Olympus).
Changes in cell morphology were determined on the basis of alterations in septal integrity, abnormal elongation, spheroplast formation and filamentation, patterns previously associated with the selective inhibition of PBP1, PBP2 and PBP3 in Gram-negative bacilli. Specifically, PBP1 inhibition has been linked to cell lysis, PBP2 inhibition has been linked to spherification, and PBP3 inhibition to defective cell division and filament formation (1, 2). The results were qualitatively compared across different treatments to infer the potential selectivity of enmetazobactam for specific PBPs.

[3] = CHDLs-producing A. baumannii isolates (n = 67), durlobactam series, DUR fixed 4 mg/L in combinations

Structure (SMILES): CC1(C)[C@H](C(=O)O)N2C(=O)C[C@H]2S1(=O)=O [sulbactam]
- MIC distribution ≥64 [1]: 100%
- MIC ([1]; MBC set, isolate Ab4, A. baumannii ST 2, ADC-30, OXA-66, ISAba1-OXA-23): 16 µg/mL (≈ 68.6 µM)
- MIC ([1]; MBC set, isolate Ab6, A. baumannii ST 2, ADC-30, OXA-66, ISAba1-OXA-23, TEM-12): 16 µg/mL (≈ 68.6 µM)
- MIC ([1]; MBC set, isolate Ab9, A. baumannii ST 2, ADC-30, OXA-66, OXA-23, TEM-12): 4 µg/mL (≈ 17.1 µM)
- MIC ([1]; isolate Ab56, ST 1, ADC-75, OXA-69, OXA-23, ETZ fixed 8 mg/L in combinations): 8 µg/mL
- MIC ([1]; isolate Ab83, ST 25, ADC-5, OXA-64, OXA-23, DUR fixed at 4 mg/L in combinations): 32 µg/mL
- MIC ([1]; isolate Ab83, ST 25, ADC-5, OXA-64, OXA-23, ETZ fixed 8 mg/L in combinations): 32 µg/mL
- MIC ([1]; isolate Ab109, ST 1, ADC-75, OXA-69, OXA-23, DUR fixed at 4 mg/L in combinations): 16 µg/mL
- MIC ([1]; isolate Ab109, ST 1, ADC-75, OXA-69, OXA-23, ETZ fixed 8 mg/L in combinations): 16 µg/mL
- MIC ([1]; isolate Ab133, ST 2, ADC-30, OXA-66, OXA-58, TEM-12, DUR fixed at 4 mg/L in combinations): 32 µg/mL
- MIC ([1]; isolate Ab133, ST 2, ADC-30, OXA-66, OXA-58, TEM-12, ETZ fixed 8 mg/L in combinations): 32 µg/mL
- MIC ([1]; isolate Ab134, ST 2, ADC-30, OXA-66, OXA-58, TEM-12, DUR fixed at 4 mg/L in combinations): 32 µg/mL
- MIC ([1]; isolate Ab134, ST 2, ADC-30, OXA-66, OXA-58, TEM-12, ETZ fixed 8 mg/L in combinations): 32 µg/mL
- MIC ([1]; isolate Ab137, ST 85, ADC-2, OXA-94, OXA-23, DUR fixed at 4 mg/L in combinations): 16 µg/mL
- MIC ([1]; isolate Ab137, ST 85, ADC-2, OXA-94, OXA-23, ETZ fixed 8 mg/L in combinations): 16 µg/mL
- MIC ([1]; isolate Ab138, ST 745, ADC-30, OXA-66, OXA-58, DUR fixed at 4 mg/L in combinations): 4 µg/mL
- MIC ([1]; isolate Ab138, ST 745, ADC-30, OXA-66, OXA-58, ETZ fixed 8 mg/L in combinations): 8 µg/mL
- MIC ([1]; isolate Ab140, ST 85, ADC-2, OXA-94, OXA-23, DUR fixed at 4 mg/L in combinations): 16 µg/mL
- MIC ([1]; isolate Ab140, ST 85, ADC-2, OXA-94, OXA-23, ETZ fixed 8 mg/L in combinations): 16 µg/mL
- MIC ([1]; isolate Ab141, ST 745, ADC-30, OXA-66, OXA-58, DUR fixed at 4 mg/L in combinations): 8 µg/mL
- MIC ([1]; isolate Ab141, ST 745, ADC-30, OXA-66, OXA-58, ETZ fixed 8 mg/L in combinations): 8 µg/mL
- MIC ([1]; isolate Ab144, ST 745, ADC-30, OXA-66, OXA-58, DUR fixed at 4 mg/L in combinations): 8 µg/mL
- MIC ([1]; isolate Ab144, ST 745, ADC-30, OXA-66, OXA-58, ETZ fixed 8 mg/L in combinations): 8 µg/mL
- MIC ([1]; isolate Ab169, ST 2, ADC-30, OXA-66, OXA-23, DUR fixed at 4 mg/L in combinations): 16 µg/mL
- MIC ([1]; isolate Ab169, ST 2, ADC-30, OXA-66, OXA-23, ETZ fixed 8 mg/L in combinations): 16 µg/mL
- MIC ([1]; isolate Ab171, ST 2, ADC-30, OXA-66, OXA-23, DUR fixed at 4 mg/L in combinations): 16 µg/mL
- MIC ([1]; isolate Ab171, ST 2, ADC-30, OXA-66, OXA-23, ETZ fixed 8 mg/L in combinations): 16 µg/mL
- MIC ([1]; isolate Ab173, ST 2, ISAba1-ADC-30, OXA-66, OXA-23, DUR fixed at 4 mg/L in combinations): 32 µg/mL
- MIC ([1]; isolate Ab173, ST 2, ISAba1-ADC-30, OXA-66, OXA-23, ETZ fixed 8 mg/L in combinations): 32 µg/mL
- MIC ([1]; isolate Ab174, ST 2, ADC-30, OXA-66, OXA-23, DUR fixed at 4 mg/L in combinations): 16 µg/mL
- MIC ([1]; isolate Ab174, ST 2, ADC-30, OXA-66, OXA-23, ETZ fixed 8 mg/L in combinations): 16 µg/mL
- MIC ([1]; isolate Ab179, ST 2, ADC-30, OXA-66, OXA-23, DUR fixed at 4 mg/L in combinations): 16 µg/mL
- MIC ([1]; isolate Ab179, ST 2, ADC-30, OXA-66, OXA-23, ETZ fixed 8 mg/L in combinations): 16 µg/mL
- MIC ([1]; isolate Ab180, ST 2, ADC-30, OXA-66, OXA-24/40, DUR fixed at 4 mg/L in combinations): 4 µg/mL
- MIC ([1]; isolate Ab180, ST 2, ADC-30, OXA-66, OXA-24/40, ETZ fixed 8 mg/L in combinations): 4 µg/mL
- MIC ([1]; isolate Ab181, ST 2, ADC-30, OXA-66, OXA-23, DUR fixed at 4 mg/L in combinations): 16 µg/mL
- MIC ([1]; isolate Ab181, ST 2, ADC-30, OXA-66, OXA-23, ETZ fixed 8 mg/L in combinations): 16 µg/mL
- MIC ([1]; isolate Ab182, ST 2, ADC-30, OXA-66, OXA-23, DUR fixed at 4 mg/L in combinations): 8 µg/mL
- MIC ([1]; isolate Ab182, ST 2, ADC-30, OXA-66, OXA-23, ETZ fixed 8 mg/L in combinations): 8 µg/mL
- MIC ([1]; isolate Ab183, ST 2, ADC-30, OXA-66, OXA-23, DUR fixed at 4 mg/L in combinations): 8 µg/mL
- MIC ([1]; isolate Ab183, ST 2, ADC-30, OXA-66, OXA-23, ETZ fixed 8 mg/L in combinations): 8 µg/mL
- MIC ([1]; isolate Ab184, ST 2, ADC-30, OXA-66, OXA-23, DUR fixed at 4 mg/L in combinations): 16 µg/mL
- MIC ([1]; isolate Ab184, ST 2, ADC-30, OXA-66, OXA-23, ETZ fixed 8 mg/L in combinations): 16 µg/mL
- MIC ([1]; isolate Ab186, ST 2, ADC-30, OXA-66, OXA-23, DUR fixed at 4 mg/L in combinations): 16 µg/mL
- MIC ([1]; isolate Ab186, ST 2, ADC-30, OXA-66, OXA-23, ETZ fixed 8 mg/L in combinations): 16 µg/mL
- MIC ([1]; isolate Ab191, ST 2, ADC-30, OXA-66, OXA-23, DUR fixed at 4 mg/L in combinations): 16 µg/mL
- MIC ([1]; isolate Ab191, ST 2, ADC-30, OXA-66, OXA-23, ETZ fixed 8 mg/L in combinations): 16 µg/mL
- MIC ([1]; isolate Ab192, ST 2, ADC-30, OXA-66, OXA-23, DUR fixed at 4 mg/L in combinations): 16 µg/mL
- MIC ([1]; isolate Ab192, ST 2, ADC-30, OXA-66, OXA-23, ETZ fixed 8 mg/L in combinations): 16 µg/mL
- MIC ([1]; isolate Ab194, ST 2, ADC-30, OXA-66, OXA-23, DUR fixed at 4 mg/L in combinations): 16 µg/mL
- MIC ([1]; isolate Ab194, ST 2, ADC-30, OXA-66, OXA-23, ETZ fixed 8 mg/L in combinations): 16 µg/mL
- MIC ([1]; isolate Ab199, ST 2, ADC-30, OXA-66, OXA-23, DUR fixed at 4 mg/L in combinations): 16 µg/mL
- MIC ([1]; isolate Ab199, ST 2, ADC-30, OXA-66, OXA-23, ETZ fixed 8 mg/L in combinations): 16 µg/mL
- MIC ([1]; isolate Ab201, ST 2, ADC-30, OXA-66, OXA-23, DUR fixed at 4 mg/L in combinations): 16 µg/mL
- MIC ([1]; isolate Ab201, ST 2, ADC-30, OXA-66, OXA-23, ETZ fixed 8 mg/L in combinations): 16 µg/mL
- MIC ([1]; isolate Ab204, ST 2, ADC-30, OXA-66, OXA-23, DUR fixed at 4 mg/L in combinations): 16 µg/mL
- MIC ([1]; isolate Ab204, ST 2, ADC-30, OXA-66, OXA-23, ETZ fixed 8 mg/L in combinations): 8 µg/mL
- MIC50 [1, 3]: 16 mg/L
- MIC90 [1, 3]: 32 mg/L
- MIC distribution 0.12 ([1]; cumulative % of CHDLs-producing A. baumannii isolates (n = 67) at MIC 0.12 mg/L, DUR fixed 4 mg/L in combinations): 0.0%
- MIC distribution 0.25 ([1]; cumulative % of CHDLs-producing A. baumannii isolates (n = 67) at MIC 0.25 mg/L, DUR fixed 4 mg/L in combinations): 0.0%
- MIC distribution 0.5 ([1]; cumulative % of CHDLs-producing A. baumannii isolates (n = 67) at MIC 0.5 mg/L, DUR fixed 4 mg/L in combinations): 0.0%
- MIC distribution 1 ([1]; cumulative % of CHDLs-producing A. baumannii isolates (n = 67) at MIC 1 mg/L, DUR fixed 4 mg/L in combinations): 0.0%
- MIC distribution 2 ([1]; cumulative % of CHDLs-producing A. baumannii isolates (n = 67) at MIC 2 mg/L, DUR fixed 4 mg/L in combinations): 13.4%
- MIC distribution 4 ([1]; cumulative % of CHDLs-producing A. baumannii isolates (n = 67) at MIC 4 mg/L, DUR fixed 4 mg/L in combinations): 20.9%
- MIC distribution 8 ([1]; cumulative % of CHDLs-producing A. baumannii isolates (n = 67) at MIC 8 mg/L, DUR fixed 4 mg/L in combinations): 34.3%
- MIC distribution 16 ([1]; cumulative % of CHDLs-producing A. baumannii isolates (n = 67) at MIC 16 mg/L, DUR fixed 4 mg/L in combinations): 89.6%
- MIC distribution 32 ([1]; cumulative % of CHDLs-producing A. baumannii isolates (n = 67) at MIC 32 mg/L, DUR fixed 4 mg/L in combinations): 100%
- MIC distribution 0.12 ([1]; cumulative share of CRAB isolates (n = 67) at MIC 0.12 mg/L, ETZ fixed 8 mg/L in combinations): 0
- MIC distribution 0.25 ([1]; cumulative share of CRAB isolates (n = 67) at MIC 0.25 mg/L, ETZ fixed 8 mg/L in combinations): 0
- MIC distribution 0.5 ([1]; cumulative share of CRAB isolates (n = 67) at MIC 0.5 mg/L, ETZ fixed 8 mg/L in combinations): 0
- MIC distribution 1 ([1]; cumulative share of CRAB isolates (n = 67) at MIC 1 mg/L, ETZ fixed 8 mg/L in combinations): 0
- MIC distribution 2 ([1]; cumulative share of CRAB isolates (n = 67) at MIC 2 mg/L, ETZ fixed 8 mg/L in combinations): 14.9
- MIC distribution 4 ([1]; cumulative share of CRAB isolates (n = 67) at MIC 4 mg/L, ETZ fixed 8 mg/L in combinations): 17.9
- MIC distribution 8 ([1]; cumulative share of CRAB isolates (n = 67) at MIC 8 mg/L, ETZ fixed 8 mg/L in combinations): 34.3
- MIC distribution 16 ([1]; cumulative share of CRAB isolates (n = 67) at MIC 16 mg/L, ETZ fixed 8 mg/L in combinations): 89.6
- MIC distribution 32 ([1]; cumulative share of CRAB isolates (n = 67) at MIC 32 mg/L, ETZ fixed 8 mg/L in combinations): 100
- MIC distribution 64 ([1]; cumulative share of CRAB isolates (n = 67) at MIC 64 mg/L, ETZ fixed 8 mg/L in combinations): 100
- cell morphology [2]: long filaments
